Experimental data published in ChEMBL document CHEMBL3585345 (ACS Med Chem Lett, 2015).
Calls of active or inactive are those of the source. No cut-off for these calls is given here.

Tests used:
[1] = AUC (0 to 8 hrs) in nude mouse brain at 30 mg/kg, po; assay type: ADME, organism-based; design: dose 30 mg/kg, time < 8 hr, route oral
[2] = Cmax in nude mouse brain at 30 mg/kg, po; assay type: ADME, organism-based; design: dose 30 mg/kg, route oral
in vivo = conditions: nude, mouse, brain/plasma, po, 30 mg/kg
Rattus norvegicus [3] = test: Toxicity in Sprague-Dawley rat assessed as GABAA related effect at maximum tolerated dose, po administered for 7 days; assay type: organism-based; conditions: in vivo, 168 h
Rattus norvegicus [4] = test: In vivo binding affinity to GABAA receptor in po dosed Sprague-Dawley rat; assay type: ADME, organism-based
Caco-2 [5] = test: Permeability across apical to basolateral side in human Caco2 cells; assay type: ADME, cell-based
Rattus norvegicus [6] = test: (§1) Oral bioavailability in Sprague-Dawley rat at 10 mg/kg; assay type: ADME, organism-based; conditions: in vivo
Aurora kinase A [7] = molecular target: T1, Aurora kinase A (Mus musculus, UniProt P97477); test: Inhibition of recombinant mouse aurora kinase A expressed in insect Sf9 cells using biotin-GLRRASLG as substrate in presence of [gamma-33P]ATP
T1 sequence (P97477 whole entry): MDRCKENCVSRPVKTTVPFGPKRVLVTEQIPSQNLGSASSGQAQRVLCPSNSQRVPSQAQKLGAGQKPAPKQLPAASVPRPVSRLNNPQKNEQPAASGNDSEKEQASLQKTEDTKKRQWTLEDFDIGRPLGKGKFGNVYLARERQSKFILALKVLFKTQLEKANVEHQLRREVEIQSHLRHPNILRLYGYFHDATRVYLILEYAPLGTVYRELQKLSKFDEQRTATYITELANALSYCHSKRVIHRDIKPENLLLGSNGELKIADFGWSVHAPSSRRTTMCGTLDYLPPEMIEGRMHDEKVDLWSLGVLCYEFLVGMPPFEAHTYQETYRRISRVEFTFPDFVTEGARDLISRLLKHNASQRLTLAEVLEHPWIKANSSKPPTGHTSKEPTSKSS

Caco-2 [8] = test: Permeability across basolateral to apical side in human Caco2 cells; assay type: ADME, cell-based
[9] = molecular target: T2, Gamma-aminobutyric acid receptor subunit alpha-1 (Homo sapiens, UniProt P14867); test: Binding affinity to GABAA alpha-1 benzodiazepine binding site (unknown origin)
T2 sequence (P14867 whole entry): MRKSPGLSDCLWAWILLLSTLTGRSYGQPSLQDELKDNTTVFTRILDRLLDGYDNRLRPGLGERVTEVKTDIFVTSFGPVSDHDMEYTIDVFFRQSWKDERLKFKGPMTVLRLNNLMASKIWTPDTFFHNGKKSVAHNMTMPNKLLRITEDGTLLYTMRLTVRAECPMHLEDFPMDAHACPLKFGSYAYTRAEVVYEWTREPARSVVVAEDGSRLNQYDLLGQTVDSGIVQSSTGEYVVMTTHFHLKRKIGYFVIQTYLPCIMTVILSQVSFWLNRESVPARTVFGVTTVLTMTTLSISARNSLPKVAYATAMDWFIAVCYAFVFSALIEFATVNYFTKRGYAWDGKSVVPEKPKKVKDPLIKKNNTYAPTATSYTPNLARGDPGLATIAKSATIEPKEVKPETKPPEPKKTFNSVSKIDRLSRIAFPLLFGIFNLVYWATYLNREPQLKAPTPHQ

[10] = Inhibition of human CYP450; assay type: ADME
[11] = Terminal half life in Sprague-Dawley rat at 1 mg/kg, iv; assay type: ADME, organism-based; conditions: in vivo, read-out: beta t1/2 (converted)
Rattus norvegicus [12] = test: Toxicity in Sprague-Dawley rat assessed as myelosuppression at maximum tolerated dose, po administered for 7 days; assay type: organism-based; conditions: in vivo, 168 h
[13] = Protein binding in plasma (unknown origin); assay type: ADME, cell-free; conditions: read-out: PPB
[14] = Substrate activity at P-gp (unknown origin) transfected in MDCK cells; assay type: ADME, cell-based; conditions: human
Rattus norvegicus [15] = test: AUC (0 to 24 hrs) in po dosed Sprague-Dawley rat; assay type: ADME, organism-based; design: time < 24 hr, route oral; conditions: in vivo
[16] = Volume of distribution at steady state in Sprague-Dawley rat at 1 mg/kg, iv; assay type: ADME, organism-based; conditions: in vivo, read-out: Vdss
Rattus norvegicus [17] = test: Toxicity in Sprague-Dawley rat assessed as GABAA related effect administered as iv infusion measured within 5 mins; assay type: organism-based; conditions: in vivo
Aurora kinase A [18] = molecular target: T1, Aurora kinase A; test: Competitive inhibition of recombinant mouse aurora kinase A expressed in insect Sf9 cells in presence of ATP
HCT-116 = test: Cytotoxicity against human HCT116 cells assessed as inhibition of cell proliferation by BrdU incorporation assay; assay type: functional
[19] = Cmax in po dosed Sprague-Dawley rat; assay type: ADME, organism-based; design: route oral; conditions: in vivo
Rattus norvegicus [20] = test: Toxicity in Sprague-Dawley rat assessed as mucositis at maximum tolerated dose, po administered for 7 days; assay type: organism-based; conditions: in vivo, 168 h
Calu-6 [21] = test: Antitumor activity against human Calu6 cells xenografted in mouse assessed as tumor growth inhibition at 30 mg/kg, po bid administered for 21 days; assay type: functional, organism-based
[22] = Aqueous solubility of the compound; assay type: physicochemical; conditions: buffer
[23] = Inhibition of CYP450 (unknown origin) up to 100 uM; assay type: ADME; conditions: human
[24] = as §1; assay type: ADME, organism-based; conditions: Sprague-Dawley, in vivo
Rattus norvegicus [25] = test: Toxicity in Sprague-Dawley rat assessed as reversible effect on central nervous system at maximum tolerated dose, po administered for 7 days; assay type: organism-based; conditions: in vivo, 168 h
[26] = Clearance in Sprague-Dawley rat at 1 mg/kg, iv; assay type: ADME, organism-based; conditions: in vivo
Calu-6 [27] = test: Antitumor activity against human Calu6 cells xenografted in mouse assessed as tumor growth inhibition at 20 mg/kg, po bid administered for 21 days; assay type: functional, organism-based
Plasma = test: AUC (0 to 8 hrs) in nude mouse plasma at 30 mg/kg, po; assay type: ADME, organism-based; design: dose 30 mg/kg, time < 8 hr, route oral; conditions: in vivo
Aurora kinase B = Aurora kinase B (Homo sapiens, UniProt Q96GD4); test: Inhibition of aurora kinase B in human HCT116 cells assessed as inhibition of histone H3 phosphorylation by immunofluorescence analysis; assay type: cell-based, HCT-116
Aurora kinase A [28] = molecular target: T3, Aurora kinase A (Homo sapiens, UniProt O14965); test: Inhibition of aurora kinase A autophosphorylation at T288 in human HCT116 cells by immunofluorescence analysis; assay type: cell-based, HCT-116
T3 sequence (O14965 whole entry): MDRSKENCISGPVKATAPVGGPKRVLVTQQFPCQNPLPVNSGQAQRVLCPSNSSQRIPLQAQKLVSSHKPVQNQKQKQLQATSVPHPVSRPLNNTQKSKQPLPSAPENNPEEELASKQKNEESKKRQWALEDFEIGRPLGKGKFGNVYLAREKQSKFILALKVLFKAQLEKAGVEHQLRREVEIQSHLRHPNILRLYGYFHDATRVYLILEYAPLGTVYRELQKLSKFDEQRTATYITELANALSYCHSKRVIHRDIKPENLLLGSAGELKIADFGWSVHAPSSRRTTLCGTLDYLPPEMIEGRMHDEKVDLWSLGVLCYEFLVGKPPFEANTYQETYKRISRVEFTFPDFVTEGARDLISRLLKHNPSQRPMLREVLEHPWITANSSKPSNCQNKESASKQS

Sequence of Aurora kinase B (Q96GD4 whole entry): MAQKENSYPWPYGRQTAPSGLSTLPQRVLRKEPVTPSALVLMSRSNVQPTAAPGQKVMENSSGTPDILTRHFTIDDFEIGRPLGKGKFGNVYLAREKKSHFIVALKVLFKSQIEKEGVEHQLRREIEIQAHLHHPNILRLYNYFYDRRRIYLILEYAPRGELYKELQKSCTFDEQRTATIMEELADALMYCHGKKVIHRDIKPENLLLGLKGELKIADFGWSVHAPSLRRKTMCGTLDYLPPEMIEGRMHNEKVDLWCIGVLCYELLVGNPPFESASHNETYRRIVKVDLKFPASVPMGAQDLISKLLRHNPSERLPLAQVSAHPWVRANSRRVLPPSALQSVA

COc1cc(Nc2ncc3c(n2)-c2ccc(Cl)cc2C(c2c(F)cccc2OC)=NC3)ccc1C(=O)[O-].[Na+]
AUC(0-t) at 8 h [1]: 2000 ng·h/mL | Cmax [2]: 420 ng/mL | Kp (in vivo): 0.03

COc1cc(Nc2ncc3c(n2)-c2ccc(Cl)cc2C(c2c(F)cccc2OC)=NC3)ccc1C(=O)O [ALISERTIB]
Activity (Rattus norvegicus [3]): Non-toxic | Activity (Rattus norvegicus [4]): Non-toxic | permeability (Caco-2 [5]): 62 ×10⁻⁶ cm/s | F (Rattus norvegicus [6]): 124% | IC50 (Aurora kinase A [7]): 1 nM | permeability (Caco-2 [8]): 47 ×10⁻⁶ cm/s | IC50 [9]: 490 nM | IC50 [10]: > 100000 nM | half-life [11]: 7 h | Activity (Rattus norvegicus [12]): Toxic | fraction unbound [13]: < 0.03 | Activity [14]: Not Active | AUC (Rattus norvegicus [15]): 201000 ng·h/mL | Vd [16]: 2.21 L/kg | Activity (Rattus norvegicus [17]): Toxic | Ki (Aurora kinase A [18]): 0.3 nM | GI50 (HCT-116): 30 nM | Cmax [19]: 48000 ng/mL | Activity (Rattus norvegicus [20]): Toxic

O=C(O)c1ccc(Nc2ncc3c(n2)-c2ccc(Cl)cc2C(c2c(F)cccc2F)=NC3)cc1
TGI (Calu-6 [21]): Active

O=C([O-])c1ccc(Nc2ncc3c(n2)-c2ccc(Cl)cc2C(c2c(F)cccc2F)=NC3)cc1.[Na+]
AUC(0-t) at 8 h [1]: 12500 ng·h/mL | Cmax [2]: 2600 ng/mL

O=C([O-])c1ccc(Nc2ncc3c(n2)-c2ccc(Cl)cc2C(c2ccccc2F)=NC3)cc1.[Na+]
permeability (Caco-2 [5]): 58 ×10⁻⁶ cm/s | solubility [22]: > 10000 µg/mL | permeability (Caco-2 [8]): 64 ×10⁻⁶ cm/s

O=C(O)c1ccc(Nc2ncc3c(n2)-c2ccc(Cl)cc2C(c2c(F)cccc2F)=NC3)cc1 [MLN-8054]
permeability (Caco-2 [5]): 54 ×10⁻⁶ cm/s | inhibition (INH) [23]: Not Active | bioavailability [24]: 100% | IC50 (Aurora kinase A [7]): 31 nM | Activity (Rattus norvegicus [25]): Toxic | clearance [26]: 20.3 mL/min/kg | permeability (Caco-2 [8]): 79 ×10⁻⁶ cm/s | IC50 [9]: 330 nM | half-life [11]: 4.2 h | Activity (Rattus norvegicus [12]): Toxic | fraction unbound [13]: < 0.02 | Activity [14]: Not Active | AUC (Rattus norvegicus [15]): 13800 ng·h/mL | Vd [16]: 1.48 L/kg | Ki (Aurora kinase A [18]): 7 nM | Cmax [19]: 5200 ng/mL | Activity (Rattus norvegicus [20]): Toxic

COc1cc(Nc2ncc3c(n2)-c2ccc(Cl)cc2C(c2c(F)cccc2OC)=NC3)ccc1C(=O)O
TGI (Calu-6 [27]): Active

COc1cccc(F)c1C1=NCc2cnc(Nc3ccc(C(=O)[O-])cc3)nc2-c2ccc(Cl)cc21.[Na+]
AUC(0-t) at 8 h [1]: 3500 ng·h/mL | AUC (Plasma): 54300 ng·h/mL | Cmax [2]: 930 ng/mL | Kp (in vivo): 0.06

O=C(O)c1ccc(Nc2ncc3c(n2)-c2ccc(Cl)cc2C(c2ccccc2F)=NC3)cc1
IC50 (Aurora kinase A [7]): 33 nM | IC50 (Aurora kinase B): > 10000 nM | GI50 (HCT-116): 950 nM

COc1cccc(F)c1C1=NCc2cnc(Nc3ccc(C(=O)O)cc3)nc2-c2ccc(Cl)cc21
Activity (Rattus norvegicus [3]): Non-toxic | Activity (Rattus norvegicus [4]): Non-toxic | IC50 (Aurora kinase A [7]): 10 nM | IC50 [9]: 150 nM | IC50 (Aurora kinase B): 2500 nM | AUC (Rattus norvegicus [15]): 244000 ng·h/mL | GI50 (HCT-116): 130 nM | Cmax [19]: 46000 ng/mL

Nc1ncc2c(n1)-c1ccc(Cl)cc1C(c1ccccc1F)=NC2
IC50 (Aurora kinase A [7]): 1700 nM | IC50 (Aurora kinase B): > 10000 nM | GI50 (HCT-116): 11000 nM | IC50 (Aurora kinase A [28]): 6000 nM
